Data taken from ChEMBL document CHEMBL1201862, “PubChem BioAssay data set” (2004).
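Interpolation was linear, between the two tested concentrations surrounding the appropriate level; five concentrations were tested over 48 hours in 96-well plates. Abbreviation: GI50, concentration required for 50% inhibition of growth.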 Calls of active or inactive are those of the source. Rule as the data show it: active = GI50 up to about 1.1 µM and inactive = higher.

What was measured:
Experiment in all cases: growth of human tumour cells (NCI), 48 h
[1] = system: HOP-92
[2] = system: OVCAR-3
[3] = system: M14
[4] = system: K562
[5] = system: A498
[6] = system: HOP-62
[7] = system: SR
[8] = system: SK-MEL-5
[9] = system: TK-10
[10] = system: OVCAR-8
[11] = system: SK-OV-3
[12] = system: EKVX
[13] = system: NCI-H226
[14] = system: KM12
[15] = system: SK-MEL-28
[16] = system: ACHN
[17] = system: SN12C
[18] = system: SK-MEL-2
[19] = system: SNB-75
[20] = system: SF-539

| Structure (SMILES) | GI50 [1] | GI50 [2] | GI50 [3] | GI50 [4] | GI50 [5] | GI50 [6] | GI50 [7] | GI50 [8] | GI50 [9] | GI50 [10] | GI50 [11] | GI50 [12] | GI50 [13] | GI50 [14] | GI50 [15] | GI50 [16] | GI50 [17] | GI50 [18] | GI50 [19] | GI50 [20] |
| --- | --- | --- | --- | --- | --- | --- | --- | --- | --- | --- | --- | --- | --- | --- | --- | --- | --- | --- | --- | --- |
| c1cncc(CSc2ncnc3[nH]cnc23)c1 | > 100 µM (inactive) | > 100 µM (inactive) | > 100 µM (inactive) | > 100 µM (inactive) | > 100 µM (inactive) | > 100 µM (inactive) | > 100 µM (inactive) | > 100 µM (inactive) | > 100 µM (inactive) | > 100 µM (inactive) | > 100 µM (inactive) | > 100 µM (inactive) | > 100 µM (inactive) | > 100 µM (inactive) | > 100 µM (inactive) | > 100 µM (inactive) | > 100 µM (inactive) | > 100 µM (inactive) | > 100 µM (inactive) | – |
| Cc1[nH]c2ccccc2c1-c1cc(-c2cc(-c3c(C)[nH]c4ccccc34)nc(N)n2)nc(N)n1 | > 100 µM (inactive) | > 100 µM (inactive) | > 100 µM (inactive) | > 100 µM (inactive) | > 100 µM (inactive) | > 100 µM (inactive) | 86.3 µM (inactive) | > 100 µM (inactive) | > 100 µM (inactive) | > 100 µM (inactive) | > 100 µM (inactive) | > 100 µM (inactive) | 37.2 µM (inactive) | > 100 µM (inactive) | > 100 µM (inactive) | > 100 µM (inactive) | > 100 µM (inactive) | > 100 µM (inactive) | – | > 100 µM (inactive) |
| COc1cc(C(=O)OCCn2[nH]c(-c3ccc(Cl)cc3)nc2=S)cc(OC)c1OC | 27.5 µM (inactive) | 51.3 µM (inactive) | 38.3 µM (inactive) | 47.8 µM (inactive) | > 100 µM (inactive) | > 100 µM (inactive) | 37.8 µM (inactive) | 48.2 µM (inactive) | 54.3 µM (inactive) | 90.8 µM (inactive) | > 100 µM (inactive) | 91.6 µM (inactive) | 58.7 µM (inactive) | > 100 µM (inactive) | 42.7 µM (inactive) | > 100 µM (inactive) | 91.8 µM (inactive) | > 100 µM (inactive) | – | 60.8 µM (inactive) |
| O=C1CCCCCC1CC(Sc1ccccc1)Sc1ccccc1 (stereo not drawn) | > 100 µM (inactive) | 46.9 µM (inactive) | > 100 µM (inactive) | 46.7 µM (inactive) | > 100 µM (inactive) | > 100 µM (inactive) | 32.8 µM (inactive) | 52.5 µM (inactive) | > 100 µM (inactive) | > 100 µM (inactive) | > 100 µM (inactive) | > 100 µM (inactive) | > 100 µM (inactive) | 60.8 µM (inactive) | > 100 µM (inactive) | > 100 µM (inactive) | – | > 100 µM (inactive) | 49.3 µM (inactive) | > 100 µM (inactive) |
| CCOP(=O)(CC1CC(O)(CNc2cc(Cl)nc(N)n2)C1)OCC (stereo not drawn) | > 100 µM (inactive) | > 100 µM (inactive) | – | > 100 µM (inactive) | > 100 µM (inactive) | > 100 µM (inactive) | > 100 µM (inactive) | > 100 µM (inactive) | > 100 µM (inactive) | > 100 µM (inactive) | > 100 µM (inactive) | > 100 µM (inactive) | > 100 µM (inactive) | > 100 µM (inactive) | > 100 µM (inactive) | > 100 µM (inactive) | > 100 µM (inactive) | > 100 µM (inactive) | > 100 µM (inactive) | > 100 µM (inactive) |
| O=S(=O)(c1cc(Cl)ccc1Cl)N1CCN(c2ccc(Cl)c(Cl)c2)CC1 | 18 µM (inactive) | 14.6 µM (inactive) | 39.6 µM (inactive) | 91.6 µM (inactive) | 25.5 µM (inactive) | 18.2 µM (inactive) | > 100 µM (inactive) | 22.8 µM (inactive) | 20.6 µM (inactive) | 23.3 µM (inactive) | – | 32.2 µM (inactive) | 21.7 µM (inactive) | 28.2 µM (inactive) | > 100 µM (inactive) | 37 µM (inactive) | 78.5 µM (inactive) | – | 14 µM (inactive) | 25.2 µM (inactive) |
| CC(C)C1(Cl)CCC2C3(C)CCCC(C)(C(=O)O)C3CC(Cl)C2(Cl)C1Cl (stereo not drawn) | 37.4 µM (inactive) | – | 23.1 µM (inactive) | 24.3 µM (inactive) | 41.7 µM (inactive) | – | 25.6 µM (inactive) | 25.8 µM (inactive) | 43.3 µM (inactive) | 38.7 µM (inactive) | – | 21.5 µM (inactive) | 20.9 µM (inactive) | 18.2 µM (inactive) | 16.7 µM (inactive) | 43.2 µM (inactive) | 39.2 µM (inactive) | 31.4 µM (inactive) | – | 21.7 µM (inactive) |
| COC(=O)C(C(=O)C(=O)Nc1ccc([N+](=O)[O-])cc1)c1nc2cc(C)c(C)cc2nc1O (stereo not drawn) | > 100 µM (inactive) | > 100 µM (inactive) | > 100 µM (inactive) | > 100 µM (inactive) | > 100 µM (inactive) | > 100 µM (inactive) | > 100 µM (inactive) | > 100 µM (inactive) | > 100 µM (inactive) | – | > 100 µM (inactive) | > 100 µM (inactive) | > 100 µM (inactive) | > 100 µM (inactive) | > 100 µM (inactive) | > 100 µM (inactive) | > 100 µM (inactive) | – | > 100 µM (inactive) | > 100 µM (inactive) |
| CC1=NN(c2cccc(Cl)c2)C2(SCC(=O)N2c2nc3ccccc3s2)/C1=C\c1cccs1 (stereo not drawn) | 22.2 µM (inactive) | 24.8 µM (inactive) | 29.7 µM (inactive) | 4.58 µM (inactive) | 25.4 µM (inactive) | 28.2 µM (inactive) | 11.7 µM (inactive) | 18.1 µM (inactive) | 31.7 µM (inactive) | 20.8 µM (inactive) | – | 14.6 µM (inactive) | 20.3 µM (inactive) | 25.8 µM (inactive) | 29.4 µM (inactive) | 27.9 µM (inactive) | – | 18.8 µM (inactive) | 17.5 µM (inactive) | 5.01 µM (inactive) |
| COc1ccc(C2SC(=N)Nc3c2c(C)nn3C(=O)c2ccccc2O)cc1OC (stereo not drawn) | 1.08 µM (active) | > 10 µM (inactive) | 7.11 µM (inactive) | 3.53 µM (inactive) | 5.93 µM (inactive) | 6.92 µM (inactive) | 4.75 µM (inactive) | – | > 10 µM (inactive) | – | 2.54 µM (inactive) | > 10 µM (inactive) | 4.32 µM (inactive) | 6.55 µM (inactive) | 9.51 µM (inactive) | 3.91 µM (inactive) | 5.98 µM (inactive) | 4.26 µM (inactive) | 3.09 µM (inactive) | 2.84 µM (inactive) |
| COC(=O)C1=C(c2ccc3c(c2)OCO3)OC(c2cc(OC)c(OC)c(OC)c2)C1 (stereo not drawn) | 5.75 µM (inactive) | 1.43 µM (inactive) | 3.53 µM (inactive) | 0.883 µM (active) | 2.43 µM (inactive) | > 100 µM (inactive) | 0.667 µM (active) | 2.49 µM (inactive) | 5.2 µM (inactive) | 4.17 µM (inactive) | 2.28 µM (inactive) | 2.82 µM (inactive) | 3.81 µM (inactive) | – | > 100 µM (inactive) | 6.98 µM (inactive) | 4.5 µM (inactive) | – | 2.72 µM (inactive) | 5.11 µM (inactive) |
| O=c1c2cc([N+](=O)[O-])ccc2oc2nc3n(c(=O)c12)CCCS3 | > 100 µM (inactive) | > 100 µM (inactive) | > 100 µM (inactive) | > 100 µM (inactive) | > 100 µM (inactive) | 40.9 µM (inactive) | > 100 µM (inactive) | > 100 µM (inactive) | > 100 µM (inactive) | – | > 100 µM (inactive) | > 100 µM (inactive) | > 100 µM (inactive) | > 100 µM (inactive) | > 100 µM (inactive) | > 100 µM (inactive) | > 100 µM (inactive) | > 100 µM (inactive) | 64.9 µM (inactive) | > 100 µM (inactive) |
| COC(=O)C1C(C(=O)OC)C2(OC(c3ccc(Cl)cc3)=CC2=O)C12OC(c1ccc(Cl)cc1)=CC2=O (stereo not drawn) | 18.6 µM (inactive) | 19.2 µM (inactive) | 19.1 µM (inactive) | 19.3 µM (inactive) | 29.9 µM (inactive) | > 10 µM (inactive) | 1.96 µM (inactive) | 19.3 µM (inactive) | 22.6 µM (inactive) | – | 71.1 µM (inactive) | 22.3 µM (inactive) | 28.4 µM (inactive) | – | 36.8 µM (inactive) | 19.9 µM (inactive) | 20.5 µM (inactive) | 24 µM (inactive) | – | 18.3 µM (inactive) |
| Nc1nc(Cl)c(CO)c(NCC2(CO)CC(CCc3ccccc3)C2)n1 (stereo not drawn) | 24.3 µM (inactive) | 18.8 µM (inactive) | – | 1.37 µM (inactive) | 22.2 µM (inactive) | 25.4 µM (inactive) | 4.82 µM (inactive) | 17.3 µM (inactive) | 80.2 µM (inactive) | 12.7 µM (inactive) | – | 19.2 µM (inactive) | 13.3 µM (inactive) | 0.264 µM (active) | 20.4 µM (inactive) | 24.4 µM (inactive) | 31.1 µM (inactive) | – | 16.1 µM (inactive) | 21.9 µM (inactive) |
| CCCc1cc2c(cc1O)CC[C@@H]1[C@@H]2CC[C@]2(C)[C@@H](O)CC[C@@H]12 | 19.1 µM (inactive) | 11.8 µM (inactive) | 10.5 µM (inactive) | 3.17 µM (inactive) | 17.9 µM (inactive) | – | 3.61 µM (inactive) | 10.5 µM (inactive) | 16.2 µM (inactive) | 14.4 µM (inactive) | 14.6 µM (inactive) | 12.7 µM (inactive) | 13.4 µM (inactive) | 9.12 µM (inactive) | 13.1 µM (inactive) | 12.9 µM (inactive) | 11.7 µM (inactive) | 15.1 µM (inactive) | 13.5 µM (inactive) | 10.8 µM (inactive) |
